Laboratory results from publication PMC2225630 (The Journal of General Physiology, 1966).
“And” between values parts separate entries of the source, which are not always exact repeats. Equal values may be shown once. Read-outs that look alike come from different tables or passages of the source.

Assays:
[1] = system: Na+-sensitive transport system (system A) of the Ehrlich cell; experiment: Na+-sensitive uptake of amino acids; assay type: cell-based, mice
Ehrlich cell [2] = settings: first minute, high amino acid levels; cited from earlier work
[3] = system: Na+-insensitive uptake, Ehrlich cell; experiment: Uptake of amino acids by Ehrlich cells from Na+-free medium; assay type: cell-based, mice; settings: for uptake (Table II): amino acid 1 mM, [Na+] 0; for inhibitory action on the uptake of methionine: choline has replaced Na+ (Table I); for Uptake of methionine in presence of inhibitor (Table I): labeled methionine 1 mM; for Uptake of methionine in presence of inhibitor (Table I) / Uptake of AIB in presence of inhibitor (Table I) / Uptake of labeled amino acid without inhibitor (Table I): no Na+; for Km: read-out: Km for the other amino acid (Table V), choline medium, 37 C, pH 7.4, 1 min, only approximate; for Km / Ratio of uptake Methionine/other amino acid (Table VI): absence of Na+; for Rate of methionine uptake (Table IV): 1 mM, Na+-free Krebs-Ringer phosphate medium; for Uptake of AIB in presence of inhibitor (Table I): labeled AIB 1 mM; for Uptake of labeled amino acid without inhibitor (Table I): labeled amino acid 1 mM, inhibitor 0
Ehrlich cell [4] = assay type: cell-based, mice; settings: above 16 mM methionine, modified KRB medium with Na+, 1 min, 37 C, pH 7.4
[5] = [Na+] 107 mEq/liter, 1 min, 37 C, pH 7.4
[6] = methionine 0.25 mM + AIB 1.0 mM, 1 min, 37 C, pH 7.4
[7] = methionine 0.5 mM + AIB 2.0 mM, 1 min, 37 C, pH 7.4
[8] = methionine 1.0 mM + AIB 4.0 mM, 1 min, 37 C, pH 7.4
[9] = read-out: Km of Na+-sensitive uptake, [Na+] 107 mEq/liter, 1 min, 37 C, pH 7.4
[10] = choline chloride substituting for NaCl, Exp. 1
[11] = choline chloride substituting for NaCl, Exp. 2
[12] = sucrose substituting for NaCl, Exp. 1
[13] = sucrose substituting for NaCl, Exp. 2

With `CC(C)(N)C(=O)O` [AIB, a-aminoisobutyric acid, reference compound] the “Vmax of Na+-sensitive uptake” value [1, 5] was 5 mmoles/kg cell water min, the “Vmax, velocities extrapolated to infinite [Na+]” value [1] was 7.1 mM/kg cell water min and the “Sodium-sensitive uptake rate of the test amino acid in mixture (Table III)” value (shortened to “Sodium-sensitive uptake rate”) [1, 6] was 0.51 mmoles/kg cell water min. The “Sodium-sensitive uptake rate” value [1, 7] was 0.64 mmoles/kg cell water min, the “Sodium-sensitive uptake rate” value [1, 8] was 0.77 mmoles/kg cell water min and the Km [1, 9] was 2000 µM. The “rate of permeation at high levels ("nonsaturable" migration)” value (Ehrlich cell [2]) was 0.1 min-', the “uptake (Table II)” value [3, 10] was 0.16 mmoles/kg cell water min and the “uptake (Table II)” value [3, 11] was 0.21 mmoles/kg cell water min. For the same compound, the “uptake (Table II)” value [3, 12] was 0.21 mmoles/kg cell water min, the “uptake (Table II)” value [3, 13] was 0.29 mmoles/kg cell water min and the “inhibitory action on the uptake of methionine” value [3] was “no significant inhibitory action”. The “Uptake of methionine in presence of inhibitor (Table I)” value ([3]; inhibitor 4 mM) was 2.63 mmoles/kg cell water-min and the “Uptake of methionine in presence of inhibitor (Table I)” value ([3]; inhibitor 8 mM) was 2.62 mmoles/kg cell water-min.

In the case of `CNC(C)(C)C(=O)O` [MeAIB, α-(methylamino)-isobutyric acid, reference compound], the Km [1, 9] is reported as about 300 µM, the “inhibitory action on the uptake of methionine” value [3] is reported as “no significant action” and the “Uptake of methionine in presence of inhibitor (Table I)” value ([3]; inhibitor 16 mM) is reported as 1.77 mmoles/kg cell water-min.

For `C[C@H](N)C(=O)O` [alanine], the “Vmax of Na+-sensitive uptake” value ([1]; difference method of Fig. 5) was 6.4 mmoles per kg cell water min.

In the case of `NCC(=O)O` [glycine], the “Vmax of Na+-sensitive uptake” value ([1]; difference method of Fig. 5) is reported as 7.4 mmoles per kg cell water min.

For `CC(C)C[C@H](N)C(=O)O` [leucine], the Km [3] was 150 µM.

With `CSCC[C@H](N)C(=O)O` [methionine, L-methionine] the “linear slope of increase of uptake rate with methionine concentration” value (Ehrlich cell [4]) was 0.09 min- l, the “inhibition of the saturable uptake of AIB” value ([1]; Na+ at 107 mEq/liter, Fig. 10) was “so nearly complete” and the “Vmax of Na+-sensitive uptake” value [1, 5] was 4 mmoles/kg cell water min and 3.7 mmoles/kg cell water min. For the same compound, the “Vmax, velocities extrapolated to infinite [Na+]” value [1] was 5.0 mM/kg cell water min, the “inhibition of the uptake of MeAIB” value ([1]; in the presence of Na+) was “inhibits almost completely” and the “Ratio of uptake rates methionine/AIB (Table III)” value ([1]; methionine 0.25 mM + AIB 1.0 mM) was 1.1. The “Sodium-sensitive uptake rate” value [1, 6] was 0.58 mmoles/kg cell water min, the “Ratio of uptake rates methionine/AIB (Table III)” value ([1]; methionine 0.5 mM + AIB 2.0 mM) was 1.5 and the “Sodium-sensitive uptake rate” value [1, 7] was 0.99 mmoles/kg cell water min. The “Ratio of uptake rates methionine/AIB (Table III)” value ([1]; methionine 1.0 mM + AIB 4.0 mM) was 1.4, the “Sodium-sensitive uptake rate” value [1, 8] was 1.04 mmoles/kg cell water min and the Km [1, 9] was 300 µM. The Km ([1]; read-out: Km, velocities extrapolated to infinite [Na+], data of Fig. 12 left) was 140 µM, the “Rate of methionine uptake (Table IV)” value ([3]; pH 5.6, Exp. 1) was 3.03 mmoles/kg cell water min and the “Rate of methionine uptake (Table IV)” value ([3]; pH 5.6, Exp. 2) was 2.99 mmoles/kg cell water min. For the same compound, the “Rate of methionine uptake (Table IV)” value ([3]; pH 6.3, Exp. 1) was 3.03 mmoles/kg cell water min, the “Rate of methionine uptake (Table IV)” value ([3]; pH 6.3, Exp. 2) was 3.08 mmoles/kg cell water min and the “Rate of methionine uptake (Table IV)” value ([3]; pH 7.0, Exp. 1) was 2.86 mmoles/kg cell water min. For the same compound, the “Rate of methionine uptake (Table IV)” value ([3]; pH 7.0, Exp. 2) was 2.87 mmoles/kg cell water min, the “inhibitory action on the residual uptake of AIB” value ([3]; Na+ replaced with choline+ (Table I)) was “negligible inhibitory action” and the “distribution ratio (cellular level to extracellular level)” value ([3]; after 1 min, all Na+ eliminated from the medium) was 2.25. The “uptake (Table II)” value [3, 10] was 1.35 mmoles/kg cell water min, the “uptake (Table II)” value [3, 11] was 2.48 mmoles/kg cell water min and the “uptake (Table II)” value [3, 12] was 1.44 mmoles/kg cell water min. For the same compound, the “uptake (Table II)” value [3, 13] was 2.79 mmoles/kg cell water min, the “Uptake of AIB in presence of inhibitor (Table I)” value ([3]; inhibitor 0.5 mM) was 0.17 mmoles/kg cell water-min and the “Uptake of AIB in presence of inhibitor (Table I)” value ([3]; inhibitor 1 mM) was 0.14 mmoles/kg cell water-min. The “Uptake of labeled amino acid without inhibitor (Table I)” value ([3]; experiment with AIB as inhibitor) was 2.68 mmoles/kg cell water-min, the “Uptake of labeled amino acid without inhibitor (Table I)” value ([3]; experiment with MeAIB as inhibitor) was 1.77 mmoles/kg cell water-min and the “Ratio of uptake Methionine/other amino acid (Table VI)” value ([3]; methionine and leucine, each 0.2 mM) was 0.99. The “Ratio of uptake Methionine/other amino acid (Table VI)” value ([3]; methionine and leucine, each 0.4 mM) was 0.94, the “Ratio of uptake Methionine/other amino acid (Table VI)” value ([3]; methionine and leucine, each 0.8 mM) was 0.92 and the “Ratio of uptake Methionine/other amino acid (Table VI)” value ([3]; methionine and leucine, each 1.6 mM) was 0.99. For the same compound, the “Ratio of uptake Methionine/other amino acid (Table VI)” value ([3]; methionine and valine, each 0.25 mM) was 3.2, the “Ratio of uptake Methionine/other amino acid (Table VI)” value ([3]; methionine and valine, each 0.5 mM) was 2.18 and the “Ratio of uptake Methionine/other amino acid (Table VI)” value ([3]; methionine and valine, each 1.0 mM) was 1.65. The “Ratio of uptake Methionine/other amino acid (Table VI)” value ([3]; methionine and valine, each 2.0 mM) was 1.33.

`CC(C)[C@H](N)C(=O)O` [valine] showed a Km [3] of 750 µM.
